Tests used:
soybean (Glycine max) [1] = test: Upland soil treatment (Test Example 2), crop; assay type: in vivo; conditions: soil surface treatment next day after sowing, 1 kg active ingredient per hectare, evaluated 21st day, lower index = higher safety
Description: (§1) In the above evaluation criteria, the term “herbicidal effect” means evaluation to the objective weeds, and a higher index of the evaluation criteria means higher herbicidal effect on the objective weeds. On the other hand, a lower index of the evaluation criteria for the crops means higher safety to the crops. A plastic pot of 130 cm^2 was filled with upland soil. Then, seeds of weeds, namely, Setaria viridis, Digitaria adscendens, Chenopodium album and Stellaria media, and seeds of crops, namely, soybean (Glycine max) and wheat (Triticum aestivum), were sowed and covered with soil of about 1 cm thick. On the next day after the sowing, a wettable powder composition was prepared in accordance with Formulation Example 1, diluted with water in such an amount that the amount of the active ingredient became 1 kg per hectare, and then uniformly applied to the soil surface. On the 21st day after the application, observation and evaluation were carried out according to the aforesaid criteria.

[2] = test system: wheat (Triticum aestivum); test: Upland soil treatment (Test Example 2), crop; assay type: in vivo; conditions: soil surface treatment next day after sowing, 1 kg active ingredient per hectare, evaluated 21st day, lower index = higher safety
Description: as §1

Setaria viridis [3] = test: Upland field foliage treatment (Test Example 1); assay type: in vivo; conditions: foliage treatment 14th day after sowing, wettable powder, 1 kg active ingredient per hectare, evaluated 21st day after application
Description: (§2) In the above evaluation criteria, the term “herbicidal effect” means evaluation to the objective weeds, and a higher index of the evaluation criteria means higher herbicidal effect on the objective weeds. On the other hand, a lower index of the evaluation criteria for the crops means higher safety to the crops. A plastic pot of 130 cm^2 was filled with upland soil. Then, seeds of weeds, namely, Setaria viridis, Digitaria adscendens, Chenopodium album and Stellaria media, and seeds of crops, namely, soybean (Glycine max) and wheat (Triticum aestivum), were sowed and covered with soil of about 1 cm thick. On the 14th day after the sowing, a wettable powder composition was prepared in accordance with Formulation Example 1, diluted with water in such an amount that the amount of the active ingredient became 1 kg per hectare, and then uniformly applied to the plant leaf surfaces. On the 21st day after the application, observation and evaluation were carried out according to the aforesaid criteria.

Digitaria adscendens [4] = test: Upland field foliage treatment (Test Example 1); assay type: in vivo; conditions: foliage treatment 14th day after sowing, wettable powder, 1 kg active ingredient per hectare, evaluated 21st day after application
Description: as §2

Chenopodium album [5] = test: Upland field foliage treatment (Test Example 1); assay type: in vivo; conditions: foliage treatment 14th day after sowing, wettable powder, 1 kg active ingredient per hectare, evaluated 21st day after application
Description: as §2

Stellaria media [6] = test: Upland field foliage treatment (Test Example 1); assay type: in vivo; conditions: foliage treatment 14th day after sowing, wettable powder, 1 kg active ingredient per hectare, evaluated 21st day after application
Description: as §2

Setaria viridis [7] = test: Upland soil treatment (Test Example 2); assay type: in vivo; conditions: soil surface treatment next day after sowing, wettable powder, 1 kg active ingredient per hectare, evaluated 21st day after application
Description: as §1

Digitaria adscendens [8] = test: Upland soil treatment (Test Example 2); assay type: in vivo; conditions: soil surface treatment next day after sowing, wettable powder, 1 kg active ingredient per hectare, evaluated 21st day after application
Description: as §1

Chenopodium album [9] = test: Upland soil treatment (Test Example 2); assay type: in vivo; conditions: soil surface treatment next day after sowing, wettable powder, 1 kg active ingredient per hectare, evaluated 21st day after application
Description: as §1

Stellaria media [10] = test: Upland soil treatment (Test Example 2); assay type: in vivo; conditions: soil surface treatment next day after sowing, wettable powder, 1 kg active ingredient per hectare, evaluated 21st day after application
Description: as §1

soybean (Glycine max) [11] = test: Upland field foliage treatment (Test Example 1), crop; assay type: in vivo; conditions: foliage treatment 14th day after sowing, 1 kg active ingredient per hectare, evaluated 21st day, lower index = higher safety
Description: as §2

[12] = test system: wheat (Triticum aestivum); test: as above; assay type: in vivo; conditions: foliage treatment 14th day after sowing, 1 kg active ingredient per hectare, evaluated 21st day, lower index = higher safety
Description: as §2

Echinochloa spp. = test: Paddy field treatment (Test Example 3); assay type: in vivo, Echinochloa crusgalli; conditions: paddy pot, submerged 4 cm, dropped on water surface 10th day after transplantation, 1 kg active ingredient per hectare, evaluated 21st day
Procedure: (§3) In the above evaluation criteria, the term “herbicidal effect” means evaluation to the objective weeds, and a higher index of the evaluation criteria means higher herbicidal effect on the objective weeds. On the other hand, a lower index of the evaluation criteria for the crops means higher safety to the crops. A plastic pot of 130 cm^2 was filled with paddy soil, and soil puddling was carried out to adjust the submerged depth to 4 cm. Then, seeds of Echinochloa crusgalli, Monochoria vaginalis, Ammannia multiflora and Scirpus juncoides were sowed, and rice (Oryza […], variety: Koshihikari) of two-leaf period was transplanted by 2 rice plants of 1 stub per pot at a depth of 3 cm. On the 10th day after the transplantation, a wettable powder composition was prepared in accordance with Formulation Example 1, diluted with water in such an amount that the amount of the active ingredient became 1 kg per hectare, and then dropped to diffuse on the water surface. On the 21st day after the dropping, observation and evaluation were carried out according to the aforesaid criteria.

Scirpus juncoides = test: Paddy field treatment (Test Example 3); assay type: in vivo; conditions: paddy pot, submerged 4 cm, dropped on water surface 10th day after transplantation, 1 kg active ingredient per hectare, evaluated 21st day
Procedure: as §3

Monochoria vaginalis = test: Paddy field treatment (Test Example 3); assay type: in vivo; conditions: paddy pot, submerged 4 cm, dropped on water surface 10th day after transplantation, 1 kg active ingredient per hectare, evaluated 21st day
Procedure: as §3

Ammannia multiflora = test: Paddy field treatment (Test Example 3); assay type: in vivo; conditions: paddy pot, submerged 4 cm, dropped on water surface 10th day after transplantation, 1 kg active ingredient per hectare, evaluated 21st day
Procedure: as §3

[13] = test system: rice (Oryza sative, variety: Koshihikari); test: Paddy field treatment (Test Example 3), crop; assay type: in vivo, Oryza sativa; conditions: transplanted rice two-leaf period, water surface treatment 10th day after transplantation, 1 kg active ingredient per hectare, evaluated 21st day, lower index = higher safety
Procedure: as §3

Row | Structure (SMILES) | Herbicidal activity Glycine max (soybean (Glycine max) [1]) | Herbicidal activity Triticum aestivum [2] | Herbicidal activity Setaria viridis (Setaria viridis [3]) | Herbicidal activity Digitaria adscendens (Digitaria adscendens [4]) | Herbicidal activity Chenopodium album (Chenopodium album [5]) | Herbicidal activity Stellaria media (Stellaria media [6]) | Herbicidal activity Setaria viridis (Setaria viridis [7]) | Herbicidal activity Digitaria adscendens (Digitaria adscendens [8]) | Herbicidal activity Chenopodium album (Chenopodium album [9]) | Herbicidal activity Stellaria media (Stellaria media [10]) | Herbicidal activity Glycine max (soybean (Glycine max) [11]) | Herbicidal activity Triticum aestivum [12] | Herbicidal activity Echinochloa spp. (Echinochloa spp.) | Herbicidal activity Scirpus juncoides (Scirpus juncoides) | Herbicidal activity Monochoria vaginalis (Monochoria vaginalis) | Herbicidal activity Ammannia multiflora (Ammannia multiflora) | Herbicidal activity Oryza sativa [13]
1 | COC=C(Cn1nc(-c2cccc(Cl)c2)cc1SC)C(=O)OC [Compound 38] | 0 (herbicidal effect of not less than 0% by weight and less than 10% by weight) | 0 (herbicidal effect of not less than 0% by weight and less than 10% by weight) | 4 (herbicidal effect of not less than 70% by weight and less than 90% by weight) | 4 (herbicidal effect of not less than 70% by weight and less than 90% by weight) | 5 (herbicidal effect of not less than 90% by weight) | 5 (herbicidal effect of not less than 90% by weight) | 4 (herbicidal effect of not less than 70% by weight and less than 90% by weight) | 4 (herbicidal effect of not less than 70% by weight and less than 90% by weight) | 4 (herbicidal effect of not less than 70% by weight and less than 90% by weight) | 4 (herbicidal effect of not less than 70% by weight and less than 90% by weight) | 1 (herbicidal effect of not less than 10% by weight and less than 30% by weight) | 0 (herbicidal effect of not less than 0% by weight and less than 10% by weight) | 3 (herbicidal effect of not less than 50% by weight and less than 70% by weight) | 3 (herbicidal effect of not less than 50% by weight and less than 70% by weight) | 4 (herbicidal effect of not less than 70% by weight and less than 90% by weight) | 3 (herbicidal effect of not less than 50% by weight and less than 70% by weight) | 0 (herbicidal effect of not less than 0% by weight and less than 10% by weight)
2 | COC=C(Cn1nc(-c2ccc(Cl)cc2Cl)c(Br)c1C)C(=O)OC [Compound 30] | 0 (herbicidal effect of not less than 0% by weight and less than 10% by weight) | 0 (herbicidal effect of not less than 0% by weight and less than 10% by weight) | 4 (herbicidal effect of not less than 70% by weight and less than 90% by weight) | 5 (herbicidal effect of not less than 90% by weight) | 5 (herbicidal effect of not less than 90% by weight) | 5 (herbicidal effect of not less than 90% by weight) | 5 (herbicidal effect of not less than 90% by weight) | 5 (herbicidal effect of not less than 90% by weight) | 4 (herbicidal effect of not less than 70% by weight and less than 90% by weight) | 4 (herbicidal effect of not less than 70% by weight and less than 90% by weight) | 1 (herbicidal effect of not less than 10% by weight and less than 30% by weight) | 0 (herbicidal effect of not less than 0% by weight and less than 10% by weight) | 4 (herbicidal effect of not less than 70% by weight and less than 90% by weight) | 4 (herbicidal effect of not less than 70% by weight and less than 90% by weight) | 5 (herbicidal effect of not less than 90% by weight) | 5 (herbicidal effect of not less than 90% by weight) | 0 (herbicidal effect of not less than 0% by weight and less than 10% by weight)
3 | COC=C(Cn1nc(-c2ccccc2Cl)c(Cl)c1C)C(=O)OC [Compound 18] | 0 (herbicidal effect of not less than 0% by weight and less than 10% by weight) | 0 (herbicidal effect of not less than 0% by weight and less than 10% by weight) | 4 (herbicidal effect of not less than 70% by weight and less than 90% by weight) | 5 (herbicidal effect of not less than 90% by weight) | 5 (herbicidal effect of not less than 90% by weight) | 5 (herbicidal effect of not less than 90% by weight) | 4 (herbicidal effect of not less than 70% by weight and less than 90% by weight) | 5 (herbicidal effect of not less than 90% by weight) | 5 (herbicidal effect of not less than 90% by weight) | 5 (herbicidal effect of not less than 90% by weight) | 0 (herbicidal effect of not less than 0% by weight and less than 10% by weight) | 0 (herbicidal effect of not less than 0% by weight and less than 10% by weight) | 5 (herbicidal effect of not less than 90% by weight) | 5 (herbicidal effect of not less than 90% by weight) | 5 (herbicidal effect of not less than 90% by weight) | 5 (herbicidal effect of not less than 90% by weight) | 1 (herbicidal effect of not less than 10% by weight and less than 30% by weight)
4 | COC=C(Cn1nc(-c2cc(C)ccc2C)c(Br)c1C)C(=O)OC [Compound 28] | 0 (herbicidal effect of not less than 0% by weight and less than 10% by weight) | 0 (herbicidal effect of not less than 0% by weight and less than 10% by weight) | 4 (herbicidal effect of not less than 70% by weight and less than 90% by weight) | 4 (herbicidal effect of not less than 70% by weight and less than 90% by weight) | 5 (herbicidal effect of not less than 90% by weight) | 5 (herbicidal effect of not less than 90% by weight) | 4 (herbicidal effect of not less than 70% by weight and less than 90% by weight) | 4 (herbicidal effect of not less than 70% by weight and less than 90% by weight) | 4 (herbicidal effect of not less than 70% by weight and less than 90% by weight) | 4 (herbicidal effect of not less than 70% by weight and less than 90% by weight) | 0 (herbicidal effect of not less than 0% by weight and less than 10% by weight) | 0 (herbicidal effect of not less than 0% by weight and less than 10% by weight) | 5 (herbicidal effect of not less than 90% by weight) | 5 (herbicidal effect of not less than 90% by weight) | 5 (herbicidal effect of not less than 90% by weight) | 5 (herbicidal effect of not less than 90% by weight) | 1 (herbicidal effect of not less than 10% by weight and less than 30% by weight)

From patent US6809065B2, “Herbicide containing substituted pyrazole derivative as active ingredient” (SDS Biotech K.K., priority 2001, dated 2004)
